Results taken from patent US6713051B2, “Antiperspirant or deodorant compositions” (Unilever Home & Personal Care USA division of Conopco, Inc., priority 2001, dated 2004).

Target: T1, human PPARα (Homo sapiens, UniProt Q07869)
T1 construct: The coding region of a human PPARα cDNA was inserted downstream of the CMV promoter; expressed in transfected cells; host or cells: Cos-7 cells, transient transfection (pcDNA3.1(−)-PPARα, pRSV-RXRα, 3xPPRE-TK-luc reporter, pRL-TK)
T1 sequence (Q07869 1-468): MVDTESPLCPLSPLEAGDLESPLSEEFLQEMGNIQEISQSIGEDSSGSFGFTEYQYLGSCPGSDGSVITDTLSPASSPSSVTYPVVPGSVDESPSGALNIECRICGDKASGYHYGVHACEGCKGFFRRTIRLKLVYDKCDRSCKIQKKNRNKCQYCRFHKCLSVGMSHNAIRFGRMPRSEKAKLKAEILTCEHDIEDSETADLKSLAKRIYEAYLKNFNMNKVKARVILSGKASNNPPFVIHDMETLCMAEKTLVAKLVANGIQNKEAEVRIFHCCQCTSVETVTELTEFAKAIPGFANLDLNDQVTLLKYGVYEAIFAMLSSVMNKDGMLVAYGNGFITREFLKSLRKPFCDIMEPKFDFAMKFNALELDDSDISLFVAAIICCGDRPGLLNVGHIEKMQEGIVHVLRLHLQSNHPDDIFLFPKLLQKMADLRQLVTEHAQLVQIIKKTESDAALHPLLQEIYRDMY
T1 sequence (P19793 1-462 partner): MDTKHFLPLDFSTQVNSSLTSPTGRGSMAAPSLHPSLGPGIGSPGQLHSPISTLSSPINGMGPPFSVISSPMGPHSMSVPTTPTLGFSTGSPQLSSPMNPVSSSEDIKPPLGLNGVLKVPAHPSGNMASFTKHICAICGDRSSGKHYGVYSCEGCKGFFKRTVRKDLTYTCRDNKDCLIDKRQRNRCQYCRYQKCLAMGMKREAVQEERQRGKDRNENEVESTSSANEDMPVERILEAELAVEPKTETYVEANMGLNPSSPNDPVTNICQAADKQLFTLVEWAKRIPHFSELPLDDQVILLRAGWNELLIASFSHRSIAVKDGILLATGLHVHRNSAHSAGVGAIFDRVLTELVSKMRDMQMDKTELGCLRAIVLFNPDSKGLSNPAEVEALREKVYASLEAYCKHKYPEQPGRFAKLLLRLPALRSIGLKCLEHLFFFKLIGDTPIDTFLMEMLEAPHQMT
Experiment: PPARα reporter gene assay (firefly luciferase, transiently transfected Cos-7 cells)
Assay type: cell-based

- Result at (lowest administration level at which super or MS activity was achieved): 25 μm
- Pass at (lowest tested administration level at which the test material passed) (pass = activation greater than oleic acid at 100 μM, commonly >1.57 times vehicle control, 24 h treatment): 10 μm
Compound: CC\C=C/C=C/C=C/C=C\CCCCCCCC(=O)O [cis parinaric acid, cis-parinaric acid]
- Result (superior activity class achieved) (class reached): super (superior activity [super] (50% higher—at least 2.25 times PPARα activation))
